Source: patent publication US10495796B2, “Near-infrared cut filter” (AGC INC., priority 2012, dated 2019)

Columns and labels:
[1] = Solubility of dye to organic solvent; assay type: physicochemical; conditions: 50° C., mass % of the dye to the mass of the entire solution; for Solubility to organic solvent: MIBK: methyl isobutyl ketone
Description: Regarding the dyes (A11-1) to (A11-10) and (A11-20) to (A11-27) obtained above, solubility to organic solvent was evaluated as follows.
Three kinds of solvents, cyclohexanone, methyl isobutyl ketone (MIBK), toluene, were used as the organic solvent in the solubility test. Note that in Table 3, % is mass % of the dye to the mass of the entire solution. Further, the temperature of each organic solvent in the solubility test was 50° C.

[2] = Absorption characteristics: transmission spectrum of near-infrared absorbing layer of NIR filter (UV-visible spectrophotometer); assay type: physicochemical
Description: Further, the transmittance of the near-infrared absorbing layer can be measured by using an ultraviolet visible light spectrophotometer. For example, when the near-infrared absorbing layer is provided on a glass substrate, the transmittance is calculated by subtracting the transmittance of only the glass substrate. Note that the transmittance of light of the near-infrared absorbing layer refers to, unless otherwise stated, a ratio to light incident from a direction orthogonal to a main surface of a sample, the ratio of this light traveling straight inside the sample and transmitted to an opposite side. Further, when the transmittance is measured by making light incident from a direction other than the direction orthogonal to the main surface of the sample in the measurement of transmittance of light, an angle made by a straight line indicating the direction of the incident light to a line orthogonal to the main surface is called an incident angle.
In the condition (ii-3), the value calculated by nd(B)×(λa−λc) (hereinafter, this value may also be described as “Is value”) is a value to be an index indicating steepness of the absorption curve in the vicinity of the boundary between the visible light region and the near-infrared region with respect to a transmission spectrum of the near-infrared absorbing layer. When this value is 115 or less, the absorption curve in the vicinity of the boundary between the visible light region and the near-infrared region is steep with respect to the near-infrared absorbing layer, which can be said as preferable for the NIR filter.
That is, with respect to the transmission spectrum of the near-infrared absorbing layer, the smaller the difference (λa−λc) between the shortest wavelength λa with transmittance of 1% in the region of 650 nm to 800 nm and the wavelength λc with transmittance of 70% on a shorter wavelength side than the λa, the steeper the absorption curve in the vicinity of the boundary between the visible light region and the near-infrared region. Here, λa−λc also depends on a wavelength width having transmittance of 1% or less (λb−λa; λb is the longest wavelength with transmittance of 1% in the wavelength region of 650 nm to 800 nm). Accordingly, in order to compare and evaluate the steepness of the absorption curve in the above region of the transmission spectrum of the near-infrared absorbing layer, λb−λa is fixed to 30 nm. That is, λb−λa of the near-infrared absorbing layer which the present filter has is not limited to 30 nm.
Further, in the Is value, (λa−λc) is multiplied by the refractive index nd(B) of the transparent resin (B) contained in the near-infrared absorbing layer as a coefficient. This is to standardize the difference in steepness among resins.
Regarding transmittance (%/nm) of the NIR filters 1 to 109 obtained above, transmission spectra were measured and calculated by using an ultraviolet visible light spectrophotometer (U-4100 type spectrophotometer made by Hitachi High-Technologies Corporation). Analysis results of transmission spectra of the near-infrared absorbing layers which the NIR filters have are presented in Table 4, Table 5 and Table 6 for the NIR filters 1 to 25, 26 to 51, 52 to 75, respectively, and are presented in Table 7 and Table 8 for the NIR filters 76 to 94, 95 to 109, respectively. In Table 4 to Table 8, the ratios (parts by mass) of dyes to 100 parts by mass of the transparent resin (B) and film thicknesses of the near-infrared absorbing layers are described together.
Further, conditions of preferred transmission spectra of the near-infrared absorbing layers in the present filter and Is values obtained by the formula: nd(B)×(λa-λc) described in above (ii-3) are described in Table 4 to Table 8 together with λa in the condition (ii-1) and λb-λa in the condition (ii-2). Note that values described in Table 4 to Table 8 are values obtained by subtracting transmittance of a glass plate from transmittance of an NIR filter. […]

[3] = transparent resin acrylic resin BR50, nd(B) 1.56, film thickness 2.3 μm
[4] = transparent resin polycarbonate EP5000, nd(B) 1.63, film thickness 2.4 μm
[5] = transparent resin polycarbonate SP1516, nd(B) 1.60, film thickness 0.9 μm
[6] = transparent resin polycarbonate SP3810, nd(B) 1.63, film thickness 1.0 μm
[7] = transparent resin polycarbonate SP3810, nd(B) 1.63, film thickness 2.8 μm

SMILES: CC(=O)Nc1cc2c(cc1C1=C([O-])C(=c3cc4c(cc3NC(C)=O)=[N+](C)C(C)C4(C)C)C1=O)C(C)(C)C(C)N2C (stereo not drawn) [Example A11-20, reference compound]
- Solubility to organic solvent: Cyclohexanone [1]: <1.0% mass %
- Solubility to organic solvent: MIBK [1]: <1.0% mass %
- Solubility to organic solvent: Toluene [1]: <1.0% mass %
- 430 nm to 600 nm Average transmittance [2, 3]: 93.1%
- Is value (nd(B)×(λa-λc)) [2, 3]: 142.1
- λa [2, 3]: 687 nm
- λa − λc [2, 3]: 91 nm
- λb [2, 3]: 717 nm
- λb − λa [2, 3]: 30 nm
- λc [2, 3]: 596 nm
- λmax [2, 3]: 704 nm
- 430 nm to 600 nm Average transmittance [2, 4]: 95.6%
- Is value (nd(B)×(λa-λc)) [2, 4]: 122.4
- λa [2, 4]: 693 nm
- λa − λc [2, 4]: 68 nm
- λb [2, 4]: 723 nm
- λb − λa [2, 4]: 30 nm
- λc [2, 4]: 618 nm
- λmax [2, 4]: 710 nm
- 430 nm to 600 nm Average transmittance [2, 5]: 94.5%
- Is value (nd(B)×(λa-λc)) [2, 5]: 126.4
- λa [2, 5]: 690 nm
- λa − λc [2, 5]: 79 nm
- λb [2, 5]: 720 nm
- λb − λa [2, 5]: 30 nm
- λc [2, 5]: 611 nm
- λmax [2, 5]: 706 nm
- 430 nm to 600 nm Average transmittance [2, 6]: 93.6%
- Is value (nd(B)×(λa-λc)) [2, 6]: 129.1
- λa [2, 6]: 693 nm
- λa − λc [2, 6]: 79 nm
- λb [2, 6]: 723 nm
- λb − λa [2, 6]: 30 nm
- λc [2, 6]: 614 nm
- λmax [2, 6]: 710 nm
- 430 nm to 600 nm Average transmittance [2, 7]: 95.0%
- Is value (nd(B)×(λa-λc)) [2, 7]: 124.2
- λa [2, 7]: 694 nm
- λa − λc [2, 7]: 76 nm
- λb [2, 7]: 724 nm
- λb − λa [2, 7]: 30 nm
- λc [2, 7]: 618 nm
- λmax [2, 7]: 710 nm

SMILES: CCCCCCCCCCCC(=O)Nc1cc2c(cc1C1=C([O-])C(=c3cc4c(cc3NC(=O)CCCCCCCCCCC)=[N+](C)C(C)C4(C)C)C1=O)C(C)(C)C(C)N2C (stereo not drawn) [Example A11-25, reference compound]
- Solubility to organic solvent: Cyclohexanone [1]: 3.00% mass %
- Solubility to organic solvent: MIBK [1]: 1.00% mass %
- Solubility to organic solvent: Toluene [1]: 10%< mass %
- 430 nm to 600 nm Average transmittance [2, 3]: 94.5%
- Is value (nd(B)×(λa-λc)) [2, 3]: 129.6
- λa [2, 3]: 688 nm
- λa − λc [2, 3]: 83 nm
- λb [2, 3]: 718 nm
- λb − λa [2, 3]: 30 nm
- λc [2, 3]: 605 nm
- λmax [2, 3]: 705 nm
- 430 nm to 600 nm Average transmittance [2, 4]: 95.5%
- Is value (nd(B)×(λa-λc)) [2, 4]: 120.8
- λa [2, 4]: 693 nm
- λa − λc [2, 4]: 69 nm
- λb [2, 4]: 723 nm
- λb − λa [2, 4]: 30 nm
- λc [2, 4]: 619 nm
- λmax [2, 4]: 710 nm
- 430 nm to 600 nm Average transmittance [2, 5]: 95.6%
- Is value (nd(B)×(λa-λc)) [2, 5]: 124.8
- λa [2, 5]: 690 nm
- λa − λc [2, 5]: 78 nm
- λb [2, 5]: 720 nm
- λb − λa [2, 5]: 30 nm
- λc [2, 5]: 612 nm
- λmax [2, 5]: 707 nm
- 430 nm to 600 nm Average transmittance [2, 6]: 94.6%
- Is value (nd(B)×(λa-λc)) [2, 6]: 122.6
- λa [2, 6]: 693 nm
- λa − λc [2, 6]: 75 nm
- λb [2, 6]: 723 nm
- λb − λa [2, 6]: 30 nm
- λc [2, 6]: 618 nm
- λmax [2, 6]: 710 nm
- 430 nm to 600 nm Average transmittance [2, 7]: 95.3%
- Is value (nd(B)×(λa-λc)) [2, 7]: 119.3
- λa [2, 7]: 694 nm
- λa − λc [2, 7]: 73 nm
- λb [2, 7]: 724 nm
- λb − λa [2, 7]: 30 nm
- λc [2, 7]: 621 nm
- λmax [2, 7]: 710 nm

SMILES: CCCCCC(=O)Nc1cc2c(cc1C1=C([O-])C(=c3cc4c(cc3NC(=O)CCCCC)=[N+](C)C(C)C4(C)C)C1=O)C(C)(C)C(C)N2C (stereo not drawn) [Example A11-22, reference compound]
- Solubility to organic solvent: Cyclohexanone [1]: <1.0% mass %
- Solubility to organic solvent: MIBK [1]: <1.0% mass %
- Solubility to organic solvent: Toluene [1]: 1.00% mass %
- 430 nm to 600 nm Average transmittance [2, 5]: 95.3%
- Is value (nd(B)×(λa-λc)) [2, 5]: 126.4
- λa [2, 5]: 691 nm
- λa − λc [2, 5]: 79 nm
- λb [2, 5]: 721 nm
- λb − λa [2, 5]: 30 nm
- λc [2, 5]: 612 nm
- λmax [2, 5]: 707 nm

SMILES: CCCCC(CC)C(=O)Nc1cc2c(cc1C1=C([O-])C(=c3cc4c(cc3NC(=O)C(CC)CCCC)=[N+](C)C(C)C4(C)C)C1=O)C(C)(C)C(C)N2C (stereo not drawn) [Example A11-2]
- Solubility to organic solvent: Cyclohexanone [1]: 10%< mass %
- Solubility to organic solvent: MIBK [1]: 10%< mass %
- Solubility to organic solvent: Toluene [1]: 5.00% mass %
- 430 nm to 600 nm Average transmittance [2, 3]: 95%
- Is value (nd(B)×(λa-λc)) [2, 3]: 112.4
- λa [2, 3]: 689 nm
- λa − λc [2, 3]: 72 nm
- λb [2, 3]: 719 nm
- λb − λa [2, 3]: 30 nm
- λc [2, 3]: 617 nm
- λmax [2, 3]: 706 nm
- 430 nm to 600 nm Average transmittance [2, 4]: 96.2%
- Is value (nd(B)×(λa-λc)) [2, 4]: 112.6
- λa [2, 4]: 694 nm
- λa − λc [2, 4]: 69 nm
- λb [2, 4]: 724 nm
- λb − λa [2, 4]: 30 nm
- λc [2, 4]: 625 nm
- λmax [2, 4]: 711 nm
- 430 nm to 600 nm Average transmittance [2, 6]: 96.1%
- Is value (nd(B)×(λa-λc)) [2, 6]: 114.4
- λa [2, 6]: 694 nm
- λa − λc [2, 6]: 70 nm
- λb [2, 6]: 724 nm
- λb − λa [2, 6]: 30 nm
- λc [2, 6]: 624 nm
- λmax [2, 6]: 706 nm
- 430 nm to 600 nm Average transmittance [2, 7]: 95.5%
- Is value (nd(B)×(λa-λc)) [2, 7]: 112.8
- λa [2, 7]: 694 nm
- λa − λc [2, 7]: 69 nm
- λb [2, 7]: 724 nm
- λb − λa [2, 7]: 30 nm
- λc [2, 7]: 625 nm
- λmax [2, 7]: 710 nm
